Source: ChEMBL document CHEMBL3885861, “Open TG-GATES”
“And” between values parts separate entries of the source, which are not always exact repeats. Equal values may be shown once.

Organism: Rattus norvegicus
Assay: Open TG-GATES - Regimen: Single
Type: toxicity, organism-based, Sprague-Dawley
Parameters: regimen Single, gender Male, age 6 weeks
Details: in vivo, po, route gavage; for APTT / Bas / Eos / Fbg / Hb / Ht / Lym / MCH / MCHC / MCV / Mono / Neu / PT / Plat / RBC / Ret / WBC: tissue Blood; for KIDNEY_L / KIDNEY_R / KIDNEY_TOTAL: tissue Kidney; for LIVER: tissue Liver; for A/G / ALP / ALT / AST / BUN / CRE / Ca / Cl / GLC / IP / K / LDH / Na / PL / RALB / TBIL / TC / TG / TP / gamma-GTP / DBIL: tissue Plasma
[1] = 0 mg/kg, 3 h, dose level Control
[2] = 0 mg/kg, 6 h, dose level Control
[3] = 0 mg/kg, 9 h, dose level Control
[4] = 0 mg/kg, 24 h, dose level Control

## COc1ccc2c(c1)c(CC(=O)O)c(C)n2C(=O)c1ccc(Cl)cc1 [INDOMETHACIN]
[1]
  TERMINAL_BW: 201 g and 226.5 g
  APTT: 16.8 s and 19.8 s
  Bas: 0% and 0.2%
  Eos: 0.6% and 1%
  Fbg: 201.6 mg/dL and 227.8 mg/dL
  Hb: 13.6 g/dL and 13.9 g/dL
  Ht: 40.8% and 38.7%
  Lym: 80% and 80.4%
  MCH: 21.9 pg and 22.5 pg
  MCHC: 33.2% and 35.9%
  MCV: 66 fL and 62.6 fL
  Mono: 10.2% and 2.4%
  Neu: 9.6% and 15%
  PT: 12.8 s and 11.9 s
  Plat: 109 x10_4/uL and 118.1 x10_4/uL
  RBC: 618.8 x10_4/ul
  Ret: 10.2% and 7.9%
  WBC: 108.5 x10_2/uL and 100.3 x10_2/uL
  KIDNEY_L: 0.9 g and 1 g
  KIDNEY_R: 0.9 g and 1 g
  KIDNEY_TOTAL: 1.8 g and 2 g
  LIVER: 9.4 g and 10 g
  A/G: 1.6 and 1.8
  ALP: 1191.4 IU/L and 1059 IU/L
  ALT: 39 IU/L and 32.2 IU/L
  AST: 69.6 IU/L and 71.8 IU/L
  BUN: 12.2 mg/dL and 11.8 mg/dL
  CRE: 0.5 mg/dL and 0.4 mg/dL
  Ca: 10.6 mg/dL and 10.7 mg/dL
  Cl: 105.6 meq/L and 103 meq/L
  GLC: 194.4 mg/dL and 209.4 mg/dL
  IP: 10 mg/dL and 9.2 mg/dL
  K: 5.1 meq/L and 4.1 meq/L
  LDH: 104.8 IU/L and 217.4 IU/L
  Na: 137.8 meq/L and 141 meq/L
  PL: 129.4 mg/dL and 135 mg/dL
  RALB: 3.8 g/dL and 3.4 g/dL
  TBIL: 0.3 mg/dL and 0.1 mg/dL
  TC: 74.8 mg/dL and 73.8 mg/dL
  TG: 56.2 mg/dL and 67.4 mg/dL
  TP: 6.1 g/dL and 5.4 g/dL
  gamma-GTP: 1.2 IU/L
[2]
  TERMINAL_BW: 197.2 g and 224 g
  APTT: 17.5 s and 19.1 s
  Bas: 0%
  Eos: 0.8%
  Fbg: 209.2 mg/dL and 225.2 mg/dL
  Hb: 13.6 g/dL and 13.8 g/dL
  Ht: 41% and 38.1%
  Lym: 78.2% and 80%
  MCH: 21.9 pg and 22.3 pg
  MCHC: 33.1% and 36.4%
  MCV: 66.2 fL and 61.3 fL
  Mono: 6.8% and 2.8%
  Neu: 14.2% and 15%
  PT: 12.7 s and 12.2 s
  Plat: 104.7 x10_4/uL and 120.1 x10_4/uL
  RBC: 619.4 x10_4/ul and 621.8 x10_4/ul
  Ret: 9.3% and 7.9%
  WBC: 111.4 x10_2/uL and 85.5 x10_2/uL
  KIDNEY_L: 0.9 g
  KIDNEY_R: 0.9 g
  KIDNEY_TOTAL: 1.8 g and 1.9 g
  LIVER: 8.4 g and 9.5 g
  A/G: 1.7 and 1.6
  ALP: 1101.4 IU/L and 861.4 IU/L
  ALT: 34.2 IU/L and 31.6 IU/L
  AST: 68.4 IU/L and 67.8 IU/L
  BUN: 11.6 mg/dL and 9.6 mg/dL
  CRE: 0.5 mg/dL and 0.4 mg/dL
  Ca: 10.1 mg/dL and 10.8 mg/dL
  Cl: 106 meq/L and 102.8 meq/L
  DBIL: 0.032 mg/dL and 0.078 mg/dL
  GLC: 193.2 mg/dL and 193.8 mg/dL
  IP: 9.8 mg/dL and 9.4 mg/dL
  K: 4.8 meq/L and 4.1 meq/L
  LDH: 77.2 IU/L and 197.4 IU/L
  Na: 137.2 meq/L and 140.6 meq/L
  PL: 119.2 mg/dL and 136.4 mg/dL
  RALB: 3.8 g/dL and 3.4 g/dL
  TBIL: 0.3 mg/dL and 0.1 mg/dL
  TC: 69.2 mg/dL and 73.4 mg/dL
  TG: 39 mg/dL and 70.6 mg/dL
  TP: 6 g/dL and 5.5 g/dL
  gamma-GTP: 1.8 IU/L and 1 IU/L
[3]
  TERMINAL_BW: 196.5 g and 222.5 g
  APTT: 16.7 s and 17.7 s
  Bas: 0%
  Eos: 0.4% and 1%
  Fbg: 211.2 mg/dL and 229.6 mg/dL
  Hb: 13.2 g/dL and 13.5 g/dL
  Ht: 40% and 36.8%
  Lym: 82.8% and 78.6%
  MCH: 21.7 pg and 22.4 pg
  MCHC: 33.1% and 36.7%
  MCV: 65.6 fL and 61.1 fL
  Mono: 6.4% and 2.8%
  Neu: 10.2% and 16.6%
  PT: 12.5 s
  Plat: 100.8 x10_4/uL and 126.3 x10_4/uL
  RBC: 610 x10_4/ul and 603.4 x10_4/ul
  Ret: 10.2% and 8.2%
  WBC: 121.1 x10_2/uL and 84 x10_2/uL
  KIDNEY_L: 0.9 g and 1 g
  KIDNEY_R: 0.9 g and 1 g
  KIDNEY_TOTAL: 1.9 g
  LIVER: 8.1 g and 8.7 g
  A/G: 2.5 and 1.7
  ALP: 901.4 IU/L and 851.8 IU/L
  ALT: 33.8 IU/L and 28.6 IU/L
  AST: 68.8 IU/L and 64.8 IU/L
  BUN: 12.4 mg/dL and 9.6 mg/dL
  CRE: 0.5 mg/dL and 0.4 mg/dL
  Ca: 10.2 mg/dL and 10.5 mg/dL
  Cl: 107 meq/L and 104.2 meq/L
  DBIL: 0.042 mg/dL and 0.072 mg/dL
  GLC: 191 mg/dL and 209 mg/dL
  IP: 10.3 mg/dL
  K: 5.1 meq/L and 3.8 meq/L
  LDH: 98.8 IU/L and 189 IU/L
  Na: 138 meq/L and 142.4 meq/L
  PL: 137.6 mg/dL and 129.2 mg/dL
  RALB: 3.9 g/dL and 3.5 g/dL
  TC: 81 mg/dL and 72.4 mg/dL
  TG: 43.4 mg/dL and 45.8 mg/dL
  TP: 5.4 g/dL and 5.6 g/dL
  gamma-GTP: 2 IU/L and 1 IU/L
[4]
  TERMINAL_BW: 215.4 g and 240.9 g
  APTT: 16.7 s and 18.2 s
  Bas: 0% and 0.8%
  Eos: 1% and 0.6%
  Fbg: 218.4 mg/dL and 222.8 mg/dL
  Hb: 13.5 g/dL and 13.2 g/dL
  Ht: 41.1% and 38.2%
  Lym: 79% and 79.8%
  MCH: 21.6 pg and 21.5 pg
  MCHC: 33% and 34.4%
  MCV: 65.5 fL and 62.4 fL
  Mono: 10.4% and 2.6%
  Neu: 9.4% and 15.6%
  PT: 12.1 s and 11.5 s
  Plat: 95.4 x10_4/uL and 128.4 x10_4/uL
  RBC: 627.4 x10_4/ul and 612.4 x10_4/ul
  Ret: 9.1% and 6.5%
  WBC: 106.5 x10_2/uL and 112.4 x10_2/uL
  KIDNEY_L: 1 g
  KIDNEY_R: 1 g
  KIDNEY_TOTAL: 2 g
  LIVER: 10.4 g and 11.1 g
  A/G: 2.1 and 1.6
  ALP: 1109.6 IU/L and 886.6 IU/L
  ALT: 39.6 IU/L and 36.4 IU/L
  AST: 68 IU/L and 72.6 IU/L
  BUN: 18 mg/dL and 13.8 mg/dL
  CRE: 0.5 mg/dL and 0.4 mg/dL
  Ca: 10.5 mg/dL and 10.7 mg/dL
  Cl: 105 meq/L and 102.8 meq/L
  GLC: 185.4 mg/dL and 187.8 mg/dL
  IP: 8.8 mg/dL and 7.4 mg/dL
  K: 5.7 meq/L and 4.3 meq/L
  LDH: 106 IU/L and 240.2 IU/L
  Na: 138.8 meq/L and 140.6 meq/L
  PL: 153.2 mg/dL and 145.8 mg/dL
  RALB: 4 g/dL and 3.4 g/dL
  TBIL: 0.2 mg/dL and 0.1 mg/dL
  TC: 83.2 mg/dL and 72.2 mg/dL
  TG: 84 mg/dL and 116 mg/dL
  TP: 5.9 g/dL and 5.5 g/dL
  gamma-GTP: 1.2 IU/L and 1.4 IU/L
1 mg/kg, 3 h, dose level Low
  TERMINAL_BW: 199.2 g
  APTT: 17.2 s
  Bas: 0%
  Eos: 0.6%
  Fbg: 222.4 mg/dL
  Hb: 13.3 g/dL
  Ht: 40%
  Lym: 81.2%
  MCH: 21.8 pg
  MCHC: 33.1%
  MCV: 65.7 fL
  Mono: 8.6%
  Neu: 9.8%
  PT: 12.4 s
  Plat: 99.5 x10_4/uL
  RBC: 610 x10_4/ul
  Ret: 9.6%
  WBC: 95.5 x10_2/uL
  KIDNEY_L: 0.9 g
  KIDNEY_R: 0.9 g
  KIDNEY_TOTAL: 1.8 g
  LIVER: 9.5 g
  A/G: 1.7
  ALP: 1062.4 IU/L
  ALT: 37.4 IU/L
  AST: 68.6 IU/L
  BUN: 11.8 mg/dL
  CRE: 0.5 mg/dL
  Ca: 10.5 mg/dL
  Cl: 105.6 meq/L
  DBIL: 0.018 mg/dL
  GLC: 187.8 mg/dL
  IP: 9 mg/dL
  K: 4.8 meq/L
  LDH: 100 IU/L
  Na: 137.4 meq/L
  PL: 130.4 mg/dL
  RALB: 3.8 g/dL
  TBIL: 0.3 mg/dL
  TC: 75.6 mg/dL
  TG: 41.8 mg/dL
  TP: 6.1 g/dL
  gamma-GTP: 1.6 IU/L
1 mg/kg, 6 h, dose level Low
  TERMINAL_BW: 195.5 g
  APTT: 16.7 s
  Bas: 0%
  Eos: 0.6%
  Fbg: 210.6 mg/dL
  Hb: 13.6 g/dL
  Ht: 41.1%
  Lym: 78.8%
  MCH: 21.8 pg
  MCHC: 33.1%
  MCV: 66 fL
  Mono: 9%
  Neu: 11.6%
  PT: 12.5 s
  Plat: 104.4 x10_4/uL
  RBC: 623.2 x10_4/ul
  Ret: 9.4%
  WBC: 102.9 x10_2/uL
  KIDNEY_L: 1 g
  KIDNEY_R: 0.9 g
  KIDNEY_TOTAL: 1.9 g
  LIVER: 8.8 g
  A/G: 1.7
  ALP: 1218.4 IU/L
  ALT: 35.8 IU/L
  AST: 70.6 IU/L
  BUN: 11 mg/dL
  CRE: 0.5 mg/dL
  Ca: 10.2 mg/dL
  Cl: 105.6 meq/L
  DBIL: 0.02 mg/dL
  GLC: 191.4 mg/dL
  IP: 9.4 mg/dL
  K: 5.1 meq/L
  LDH: 83.6 IU/L
  Na: 136.8 meq/L
  PL: 126.4 mg/dL
  RALB: 3.8 g/dL
  TBIL: 0.3 mg/dL
  TC: 75.8 mg/dL
  TG: 53.2 mg/dL
  TP: 6 g/dL
  gamma-GTP: 1.4 IU/L
1 mg/kg, 9 h, dose level Low
  TERMINAL_BW: 198.6 g
  APTT: 16.5 s
  Bas: 0%
  Eos: 0.8%
  Fbg: 213 mg/dL
  Hb: 13.1 g/dL
  Ht: 39.4%
  Lym: 83.6%
  MCH: 21.8 pg
  MCHC: 33.3%
  MCV: 65.5 fL
  Mono: 6.6%
  Neu: 9.2%
  PT: 12.6 s
  Plat: 102.1 x10_4/uL
  RBC: 602 x10_4/ul
  Ret: 10.2%
  WBC: 141 x10_2/uL
  KIDNEY_L: 0.9 g
  KIDNEY_R: 1 g
  KIDNEY_TOTAL: 1.9 g
  LIVER: 8 g
  A/G: 2.6
  ALP: 915 IU/L
  ALT: 35.6 IU/L
  AST: 68.2 IU/L
  BUN: 10.6 mg/dL
  CRE: 0.5 mg/dL
  Ca: 10 mg/dL
  Cl: 106.8 meq/L
  DBIL: 0.072 mg/dL
  GLC: 187.4 mg/dL
  IP: 10 mg/dL
  K: 5.1 meq/L
  LDH: 92.8 IU/L
  Na: 137.4 meq/L
  PL: 141.6 mg/dL
  RALB: 3.8 g/dL
  TBIL: 0.5 mg/dL
  TC: 85.8 mg/dL
  TG: 45.2 mg/dL
